In ChEMBL document CHEMBL4422610, “HDAC as onco target: Reviewing the synthetic approaches with SAR study of their inhibitors” (Eur J Med Chem, 2018):

Assays:
Histone deacetylase [1] = assay type: cell-based, Homo sapiens; conditions: hela
Histone deacetylase [2] = assay type: cell-based, Homo sapiens; conditions: hela; remark: listed apart in the source
Histone deacetylase 1 [3] = target: T1, Histone deacetylase 1 (Homo sapiens, UniProt Q13547); experiment: Inhibition of recombinant human GST-fused HDAC1 expressed in HEK293 cells Fluor-de-lys as substrate measured after 60 mins by fluorescence assay
T1 sequence (Q13547 whole entry, the tested form may be a part): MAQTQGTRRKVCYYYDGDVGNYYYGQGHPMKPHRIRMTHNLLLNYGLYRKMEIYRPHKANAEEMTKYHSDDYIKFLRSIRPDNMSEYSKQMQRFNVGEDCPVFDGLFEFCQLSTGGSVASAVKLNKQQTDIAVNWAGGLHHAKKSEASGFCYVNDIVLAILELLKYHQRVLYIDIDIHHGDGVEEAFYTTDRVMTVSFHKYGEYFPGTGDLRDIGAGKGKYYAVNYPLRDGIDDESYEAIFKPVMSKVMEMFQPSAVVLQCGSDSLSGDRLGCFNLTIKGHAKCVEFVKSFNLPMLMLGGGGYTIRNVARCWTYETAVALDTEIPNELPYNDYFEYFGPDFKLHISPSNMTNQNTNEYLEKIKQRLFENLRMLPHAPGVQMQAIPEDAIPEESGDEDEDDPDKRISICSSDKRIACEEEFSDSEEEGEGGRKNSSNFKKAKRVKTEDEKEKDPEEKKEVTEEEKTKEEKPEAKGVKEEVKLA

[4] = target: T2, Protein deacetylase HDAC6 (Homo sapiens, UniProt Q9UBN7); experiment: Inhibition of recombinant human His-tagged HDAC6 expressed in baculovirus infected insect cells using Fluor-de-lys as substrate measured after 60 mins by fluorescence assay
T2 sequence (Q9UBN7 whole entry): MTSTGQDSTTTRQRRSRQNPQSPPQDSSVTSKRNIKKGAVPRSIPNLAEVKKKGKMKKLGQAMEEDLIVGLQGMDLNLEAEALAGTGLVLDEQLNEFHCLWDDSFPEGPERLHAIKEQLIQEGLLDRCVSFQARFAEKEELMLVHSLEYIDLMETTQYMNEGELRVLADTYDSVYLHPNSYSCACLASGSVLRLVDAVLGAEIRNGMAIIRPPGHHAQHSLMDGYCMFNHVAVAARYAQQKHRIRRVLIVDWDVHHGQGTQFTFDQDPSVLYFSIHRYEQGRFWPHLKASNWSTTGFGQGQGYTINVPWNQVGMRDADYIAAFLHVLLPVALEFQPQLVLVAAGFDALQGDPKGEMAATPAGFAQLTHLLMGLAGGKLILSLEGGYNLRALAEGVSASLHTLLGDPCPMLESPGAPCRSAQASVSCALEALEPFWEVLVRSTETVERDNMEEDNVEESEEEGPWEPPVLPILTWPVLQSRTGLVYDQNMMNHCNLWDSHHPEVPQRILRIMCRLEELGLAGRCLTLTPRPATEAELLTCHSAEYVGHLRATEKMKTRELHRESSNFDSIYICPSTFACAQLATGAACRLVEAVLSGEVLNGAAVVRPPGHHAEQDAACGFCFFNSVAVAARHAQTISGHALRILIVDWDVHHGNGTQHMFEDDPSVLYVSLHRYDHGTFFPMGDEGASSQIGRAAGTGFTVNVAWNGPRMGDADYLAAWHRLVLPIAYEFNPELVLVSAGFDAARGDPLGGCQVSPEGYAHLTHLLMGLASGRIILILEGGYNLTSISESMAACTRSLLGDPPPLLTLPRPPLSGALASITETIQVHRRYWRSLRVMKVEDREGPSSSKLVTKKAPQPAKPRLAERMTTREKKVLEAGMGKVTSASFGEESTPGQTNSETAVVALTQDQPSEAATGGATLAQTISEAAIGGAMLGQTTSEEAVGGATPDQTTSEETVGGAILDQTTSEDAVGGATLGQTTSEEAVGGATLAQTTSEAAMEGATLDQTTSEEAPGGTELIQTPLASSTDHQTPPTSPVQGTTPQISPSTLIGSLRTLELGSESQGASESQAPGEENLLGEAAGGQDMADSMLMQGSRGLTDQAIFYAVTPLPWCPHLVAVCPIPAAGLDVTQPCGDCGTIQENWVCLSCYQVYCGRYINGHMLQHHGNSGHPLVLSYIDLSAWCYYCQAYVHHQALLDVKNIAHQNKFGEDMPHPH

Histone deacetylase 1 [5] = target: T1, Histone deacetylase 1; experiment: Inhibition of recombinant human FLAG/His-tagged HDAC1 expressed in baculovirus expression system using Boc-l-Lys(Ac)-AMC as substrate preincubated up to 3 hrs and measured after 35 mins by fluorescence assay
[6] = target: Histone deacetylase 3/Nuclear receptor corepressor 2 (HDAC3/NCoR2) (Homo sapiens) (UniProt O15379+Q9Y618); experiment: Inhibition of human recombinant full length C-terminal His-tagged HDAC3 (1 to 428 residues)/N-terminal GST-tagged NCOR2 (395 to 489 residues) expressed in insect cells using Boc-l-Lys(Ac)-AMC as substrate preincubated up to 3 hrs and measured after 35 mins by fluorescence assay
[7] = target: Protein deacetylase HDAC6 (Homo sapiens) (UniProt Q9UBN7); experiment: Inhibition of human HDAC6 at 100 uM relative to control
Histone deacetylase 8 [8] = target: T3, Histone deacetylase 8 (Homo sapiens, UniProt Q9BY41); experiment: Inhibition of human HDAC8 using ZMTFAL as substrate measured after 90 mins by fluorescence assay
T3 sequence (Q9BY41 whole entry): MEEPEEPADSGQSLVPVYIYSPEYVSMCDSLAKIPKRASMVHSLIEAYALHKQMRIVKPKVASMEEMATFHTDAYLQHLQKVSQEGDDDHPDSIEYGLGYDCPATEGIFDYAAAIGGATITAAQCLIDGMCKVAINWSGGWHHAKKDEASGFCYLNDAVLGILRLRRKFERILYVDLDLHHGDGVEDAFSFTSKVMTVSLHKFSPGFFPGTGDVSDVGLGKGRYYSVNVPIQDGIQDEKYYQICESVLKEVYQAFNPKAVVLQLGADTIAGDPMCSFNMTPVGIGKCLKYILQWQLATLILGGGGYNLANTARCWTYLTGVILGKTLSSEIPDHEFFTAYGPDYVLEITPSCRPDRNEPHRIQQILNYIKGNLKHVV

Histone deacetylase 1 [9] = target: T1, Histone deacetylase 1; experiment: Inhibition of human HDAC1 using fluorogenic HDAC substrate
Histone deacetylase 4 = Histone deacetylase 4 (Homo sapiens, UniProt P56524); experiment: Inhibition of human HDAC4 using fluorogenic HDAC substrate
Histone deacetylase 4, sequence (P56524 whole entry): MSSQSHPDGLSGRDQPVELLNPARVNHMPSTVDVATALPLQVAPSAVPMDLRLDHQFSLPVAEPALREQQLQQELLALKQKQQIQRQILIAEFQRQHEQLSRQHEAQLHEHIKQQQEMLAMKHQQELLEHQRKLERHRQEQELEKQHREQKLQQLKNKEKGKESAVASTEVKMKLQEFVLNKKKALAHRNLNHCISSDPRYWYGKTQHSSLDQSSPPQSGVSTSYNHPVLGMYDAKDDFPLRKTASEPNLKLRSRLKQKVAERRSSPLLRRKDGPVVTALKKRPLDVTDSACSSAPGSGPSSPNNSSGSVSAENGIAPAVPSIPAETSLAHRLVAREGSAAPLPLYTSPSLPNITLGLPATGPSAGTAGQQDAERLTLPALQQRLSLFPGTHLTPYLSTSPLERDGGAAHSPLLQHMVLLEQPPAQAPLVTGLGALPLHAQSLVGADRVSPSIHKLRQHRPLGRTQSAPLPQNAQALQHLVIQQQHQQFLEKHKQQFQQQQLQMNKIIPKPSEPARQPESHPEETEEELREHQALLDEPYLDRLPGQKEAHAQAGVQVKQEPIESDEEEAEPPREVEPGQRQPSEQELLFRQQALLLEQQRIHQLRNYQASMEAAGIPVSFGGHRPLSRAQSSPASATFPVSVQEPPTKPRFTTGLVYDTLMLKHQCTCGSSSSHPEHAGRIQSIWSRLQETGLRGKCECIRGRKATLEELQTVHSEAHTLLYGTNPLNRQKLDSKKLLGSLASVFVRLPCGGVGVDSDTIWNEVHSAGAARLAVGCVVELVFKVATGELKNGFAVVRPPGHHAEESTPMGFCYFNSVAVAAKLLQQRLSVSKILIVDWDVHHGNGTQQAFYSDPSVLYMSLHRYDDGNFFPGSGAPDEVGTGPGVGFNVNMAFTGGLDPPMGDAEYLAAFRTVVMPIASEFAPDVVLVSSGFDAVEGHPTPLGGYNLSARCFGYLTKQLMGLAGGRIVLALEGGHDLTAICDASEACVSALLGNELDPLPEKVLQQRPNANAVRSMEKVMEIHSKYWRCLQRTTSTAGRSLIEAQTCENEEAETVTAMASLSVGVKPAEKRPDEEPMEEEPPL

Histone deacetylase 5 = Histone deacetylase 5 (Homo sapiens, UniProt Q9UQL6); experiment: Inhibition of human HDAC5 using fluorogenic HDAC substrate
Histone deacetylase 5, sequence (Q9UQL6 whole entry): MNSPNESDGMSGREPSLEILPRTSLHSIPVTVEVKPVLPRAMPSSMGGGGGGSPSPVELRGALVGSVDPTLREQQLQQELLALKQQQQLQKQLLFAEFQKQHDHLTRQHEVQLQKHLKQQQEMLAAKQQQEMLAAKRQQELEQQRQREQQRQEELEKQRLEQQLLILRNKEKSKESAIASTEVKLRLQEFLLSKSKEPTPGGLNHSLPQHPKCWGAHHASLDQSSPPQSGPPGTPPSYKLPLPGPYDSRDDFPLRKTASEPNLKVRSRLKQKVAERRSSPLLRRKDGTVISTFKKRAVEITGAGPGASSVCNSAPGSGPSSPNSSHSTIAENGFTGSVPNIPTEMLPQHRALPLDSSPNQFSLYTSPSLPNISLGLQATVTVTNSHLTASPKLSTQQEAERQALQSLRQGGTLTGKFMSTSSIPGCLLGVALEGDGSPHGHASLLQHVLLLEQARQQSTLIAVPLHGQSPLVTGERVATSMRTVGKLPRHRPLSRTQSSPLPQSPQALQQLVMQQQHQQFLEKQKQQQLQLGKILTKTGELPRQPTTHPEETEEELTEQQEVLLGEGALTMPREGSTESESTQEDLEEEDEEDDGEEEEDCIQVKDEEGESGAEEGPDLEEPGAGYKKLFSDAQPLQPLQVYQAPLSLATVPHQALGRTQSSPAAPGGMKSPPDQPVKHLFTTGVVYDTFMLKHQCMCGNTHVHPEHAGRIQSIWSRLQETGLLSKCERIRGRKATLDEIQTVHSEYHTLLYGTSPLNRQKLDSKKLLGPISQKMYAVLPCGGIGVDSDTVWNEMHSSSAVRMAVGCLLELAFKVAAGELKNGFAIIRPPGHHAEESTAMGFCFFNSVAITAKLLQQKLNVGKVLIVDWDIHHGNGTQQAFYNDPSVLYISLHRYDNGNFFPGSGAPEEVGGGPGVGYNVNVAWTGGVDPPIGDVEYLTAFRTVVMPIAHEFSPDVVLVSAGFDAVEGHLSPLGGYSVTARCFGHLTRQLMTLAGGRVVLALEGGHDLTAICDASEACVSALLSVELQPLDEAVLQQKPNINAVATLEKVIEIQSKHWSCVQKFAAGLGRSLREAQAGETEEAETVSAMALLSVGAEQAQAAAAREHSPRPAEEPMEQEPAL

[10] = target: T2, Protein deacetylase HDAC6; experiment: Inhibition of human HDAC6 using fluorogenic HDAC substrate
Histone deacetylase 7 = target: T4, Histone deacetylase 7 (Homo sapiens, UniProt Q8WUI4); experiment: Inhibition of human HDAC7 using fluorogenic HDAC substrate
T4 sequence (Q8WUI4 whole entry): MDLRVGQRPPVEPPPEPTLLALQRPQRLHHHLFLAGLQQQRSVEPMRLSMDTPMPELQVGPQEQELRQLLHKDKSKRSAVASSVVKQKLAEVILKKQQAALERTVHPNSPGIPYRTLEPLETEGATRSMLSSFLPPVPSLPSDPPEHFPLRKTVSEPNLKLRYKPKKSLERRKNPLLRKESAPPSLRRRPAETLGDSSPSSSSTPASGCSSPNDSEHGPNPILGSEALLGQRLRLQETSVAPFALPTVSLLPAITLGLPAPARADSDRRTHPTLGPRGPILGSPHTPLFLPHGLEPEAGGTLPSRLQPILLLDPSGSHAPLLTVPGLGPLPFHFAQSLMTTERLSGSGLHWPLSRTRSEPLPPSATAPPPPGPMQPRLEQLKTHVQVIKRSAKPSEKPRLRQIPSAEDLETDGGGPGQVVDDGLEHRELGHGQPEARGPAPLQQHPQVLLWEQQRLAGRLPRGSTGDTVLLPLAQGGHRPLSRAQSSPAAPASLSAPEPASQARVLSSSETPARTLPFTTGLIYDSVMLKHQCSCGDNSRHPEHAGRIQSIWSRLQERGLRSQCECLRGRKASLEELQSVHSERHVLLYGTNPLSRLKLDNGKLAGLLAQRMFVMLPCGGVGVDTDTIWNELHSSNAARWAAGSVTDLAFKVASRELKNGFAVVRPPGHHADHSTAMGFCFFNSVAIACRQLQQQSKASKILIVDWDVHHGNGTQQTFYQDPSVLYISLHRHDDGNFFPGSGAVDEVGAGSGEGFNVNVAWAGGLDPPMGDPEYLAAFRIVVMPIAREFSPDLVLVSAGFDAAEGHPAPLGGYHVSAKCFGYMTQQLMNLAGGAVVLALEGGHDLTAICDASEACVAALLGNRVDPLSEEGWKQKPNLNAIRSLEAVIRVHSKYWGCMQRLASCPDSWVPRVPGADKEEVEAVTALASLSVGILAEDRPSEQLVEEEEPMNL

Histone deacetylase 8 [11] = target: T3, Histone deacetylase 8; experiment: Inhibition of human HDAC8 using fluorogenic HDAC substrate
Histone deacetylase 9 = Histone deacetylase 9 (Homo sapiens, UniProt Q9UKV0); experiment: Inhibition of human HDAC9 using fluorogenic HDAC substrate
Histone deacetylase 9, sequence (Q9UKV0 whole entry): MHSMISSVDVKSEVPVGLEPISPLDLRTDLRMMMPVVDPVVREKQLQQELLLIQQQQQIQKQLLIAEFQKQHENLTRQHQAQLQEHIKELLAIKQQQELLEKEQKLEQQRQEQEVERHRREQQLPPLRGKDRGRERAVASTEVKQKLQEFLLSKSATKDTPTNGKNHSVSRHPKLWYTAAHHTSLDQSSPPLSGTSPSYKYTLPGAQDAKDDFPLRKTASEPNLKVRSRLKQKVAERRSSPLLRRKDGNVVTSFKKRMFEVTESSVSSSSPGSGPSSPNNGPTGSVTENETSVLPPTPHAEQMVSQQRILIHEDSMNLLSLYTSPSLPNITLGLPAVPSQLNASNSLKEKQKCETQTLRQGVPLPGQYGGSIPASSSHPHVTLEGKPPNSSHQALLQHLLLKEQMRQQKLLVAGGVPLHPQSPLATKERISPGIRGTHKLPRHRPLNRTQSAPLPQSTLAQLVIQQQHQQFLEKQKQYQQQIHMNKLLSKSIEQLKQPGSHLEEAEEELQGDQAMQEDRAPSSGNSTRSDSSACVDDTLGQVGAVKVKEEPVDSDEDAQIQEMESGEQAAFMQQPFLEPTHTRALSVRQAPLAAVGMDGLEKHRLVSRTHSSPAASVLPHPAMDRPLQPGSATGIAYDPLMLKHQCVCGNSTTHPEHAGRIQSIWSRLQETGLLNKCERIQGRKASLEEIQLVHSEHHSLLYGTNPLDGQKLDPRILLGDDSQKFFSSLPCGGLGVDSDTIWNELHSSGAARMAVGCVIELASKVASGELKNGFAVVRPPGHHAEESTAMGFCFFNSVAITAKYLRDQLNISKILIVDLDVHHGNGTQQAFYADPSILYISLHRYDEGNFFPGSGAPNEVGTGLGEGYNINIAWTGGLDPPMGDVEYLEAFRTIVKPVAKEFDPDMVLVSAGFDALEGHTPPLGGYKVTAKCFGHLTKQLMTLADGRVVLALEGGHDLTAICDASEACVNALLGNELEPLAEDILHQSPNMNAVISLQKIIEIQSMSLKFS

[12] = target: T5, Polyamine deacetylase HDAC10 (Homo sapiens, UniProt Q969S8); experiment: Inhibition of human HDAC10 using fluorogenic HDAC substrate
T5 sequence (Q969S8 whole entry): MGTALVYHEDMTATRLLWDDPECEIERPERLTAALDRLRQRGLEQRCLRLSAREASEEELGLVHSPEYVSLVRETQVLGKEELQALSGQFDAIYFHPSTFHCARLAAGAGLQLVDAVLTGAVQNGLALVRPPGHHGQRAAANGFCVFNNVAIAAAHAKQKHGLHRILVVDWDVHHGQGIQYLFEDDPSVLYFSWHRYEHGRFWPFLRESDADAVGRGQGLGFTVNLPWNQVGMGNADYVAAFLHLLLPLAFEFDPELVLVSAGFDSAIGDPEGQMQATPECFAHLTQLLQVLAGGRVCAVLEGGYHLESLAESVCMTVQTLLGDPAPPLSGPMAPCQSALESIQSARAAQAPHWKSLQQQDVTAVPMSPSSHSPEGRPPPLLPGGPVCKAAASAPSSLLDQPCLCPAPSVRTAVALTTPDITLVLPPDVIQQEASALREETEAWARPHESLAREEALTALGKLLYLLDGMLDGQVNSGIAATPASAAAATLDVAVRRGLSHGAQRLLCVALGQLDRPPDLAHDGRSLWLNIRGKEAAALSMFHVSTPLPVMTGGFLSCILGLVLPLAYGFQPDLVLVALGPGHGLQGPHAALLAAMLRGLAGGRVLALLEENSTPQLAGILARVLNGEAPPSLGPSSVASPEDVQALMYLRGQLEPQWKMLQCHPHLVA

Histone deacetylase 11 = target: T6, Histone deacetylase 11 (Homo sapiens, UniProt Q96DB2); experiment: Inhibition of human HDAC11 using fluorogenic HDAC substrate
T6 sequence (Q96DB2 whole entry): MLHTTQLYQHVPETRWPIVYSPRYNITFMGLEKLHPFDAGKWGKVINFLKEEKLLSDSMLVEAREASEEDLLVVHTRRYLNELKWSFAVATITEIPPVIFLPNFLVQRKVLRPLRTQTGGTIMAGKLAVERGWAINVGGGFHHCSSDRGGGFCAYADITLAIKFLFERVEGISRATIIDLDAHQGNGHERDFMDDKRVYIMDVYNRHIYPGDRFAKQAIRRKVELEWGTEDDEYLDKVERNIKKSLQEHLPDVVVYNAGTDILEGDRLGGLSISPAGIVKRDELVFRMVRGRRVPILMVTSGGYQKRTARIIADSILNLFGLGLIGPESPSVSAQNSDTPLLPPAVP

Histone deacetylase 1 [13] = target: T1, Histone deacetylase 1; experiment: Inhibition of HDAC1 (unknown origin) using (FAM)-labeled acetylated peptide as substrate measured after 17 hrs by fluorescence assay
Histone deacetylase 2 = Histone deacetylase 2 (Homo sapiens, UniProt Q92769)
Histone deacetylase 2, sequence (Q92769 whole entry): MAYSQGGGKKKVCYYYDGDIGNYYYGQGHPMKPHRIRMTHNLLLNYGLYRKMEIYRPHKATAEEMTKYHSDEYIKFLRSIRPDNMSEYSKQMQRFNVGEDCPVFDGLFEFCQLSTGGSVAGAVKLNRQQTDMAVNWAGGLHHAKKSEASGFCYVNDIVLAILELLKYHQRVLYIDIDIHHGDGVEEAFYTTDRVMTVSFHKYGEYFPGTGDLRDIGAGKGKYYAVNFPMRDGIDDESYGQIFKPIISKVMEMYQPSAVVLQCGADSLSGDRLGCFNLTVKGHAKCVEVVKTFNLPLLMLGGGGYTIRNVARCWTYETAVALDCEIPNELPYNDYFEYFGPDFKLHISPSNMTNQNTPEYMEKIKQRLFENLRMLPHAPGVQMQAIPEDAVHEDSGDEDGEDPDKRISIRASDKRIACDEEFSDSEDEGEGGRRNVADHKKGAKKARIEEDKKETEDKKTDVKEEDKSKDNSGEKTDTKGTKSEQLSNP

Histone deacetylase 8 [14] = target: T3, Histone deacetylase 8; experiment: Inhibition of HDAC8 (unknown origin) using (FAM)-labeled acetylated peptide as substrate measured after 17 hrs by fluorescence assay
[15] = target: T5, Polyamine deacetylase HDAC10; experiment: Inhibition of HDAC10 (unknown origin) using (FAM)-labeled acetylated peptide as substrate measured after 17 hrs by fluorescence assay
[16] = target: T2, Protein deacetylase HDAC6; experiment: Inhibition of HDAC6 (unknown origin) using (FAM)-labeled acetylated peptide as substrate measured after 17 hrs by fluorescence assay
MCF7 [17] = experiment: cells; assay type: functional, cell-based; conditions: Homo sapiens
Vero = experiment: cells; assay type: ADME, cell-based; conditions: Chlorocebus sabaeus
RWPE-1 = experiment: cells; assay type: ADME, cell-based; conditions: Homo sapiens
PC-3 = experiment: cells; assay type: functional, cell-based; conditions: Homo sapiens
MDA-MB-231 = experiment: cells; conditions: Homo sapiens
A549 = experiment: cells; conditions: Homo sapiens
MCF7 [18] = experiment: cells; conditions: Homo sapiens
MKN-45 = experiment: cells; conditions: Homo sapiens

CCn1cnc(-c2ccccc2)c1-c1ccc(/C=C/C(=O)NO)cc1
IC50 (Histone deacetylase [1]): 0.234 µM | IC50 (Histone deacetylase [2]): 0.132 µM | IC50 (Histone deacetylase 1 [3]): 0.028 µM | IC50 [4]: 0.107 µM

O=C(Nc1cc(-c2ccccc2)ccc1O)c1c(-c2ccc(O)cc2)sc2cc(O)ccc12
inhibition (Histone deacetylase 1 [5]): 21 to 34% | inhibition [6]: < 12%

O=C(NO)c1ccc(NC(=S)N/N=C/c2ccccc2)cc1
inhibition [7]: 30% | IC50 (Histone deacetylase 8 [8]): 27.6 µM

O=C(NO)c1ccc(CN2c3ccccc3C[C@@H]3CCCC[C@H]32)cc1
IC50 (Histone deacetylase 1 [9]): > 30 µM | IC50 (Histone deacetylase 4): > 30 µM | IC50 (Histone deacetylase 5): 27 µM | IC50 [10]: 0.036 µM | IC50 (Histone deacetylase 7): > 30 µM | IC50 (Histone deacetylase 8 [11]): 5.3 µM | IC50 (Histone deacetylase 9): 25 µM | IC50 [12]: > 30 µM | IC50 (Histone deacetylase 11): 1.5 µM

Nc1ccccc1NC(=O)CCCCCCC(=O)Nc1ccc(-c2cn(Cc3ccccc3)nn2)cc1
IC50 (Histone deacetylase 1 [13]): > 30 µM | IC50 (Histone deacetylase 2): > 30 µM | IC50 (Histone deacetylase 8 [14]): > 30 µM | IC50 [15]: > 30 µM | IC50 [16]: > 30 µM

O=C(NO)c1ccc(NC(=S)N/N=C/c2ccc(F)cc2)cc1
inhibition [7]: 23% | IC50 (Histone deacetylase 8 [8]): 19.7 µM

Nc1cccc(-c2csc(NC(=O)CCCCCCC(=O)Nc3ccccc3N)n2)c1
IC50 (Histone deacetylase 1 [13]): 2.49 µM | IC50 (Histone deacetylase 2): 0.147 µM | IC50 (Histone deacetylase 8 [14]): > 30 µM | IC50 [15]: 2.91 µM | IC50 [16]: > 30 µM

CC1(C)C(=O)N(c2ccc(C#N)c(C(F)(F)F)c2)C(=O)N1CCCCc1cn(CCCCCCC(=O)NO)nn1
IC50 (MCF7 [17]): 14.6 µM | IC50 (Vero): > 20 µM | IC50 (RWPE-1): 12.1 µM | IC50 (PC-3): 15.7 µM | IC50 (MDA-MB-231): > 20 µM

CCCCCCC[C@H](OC(=O)[C@@H](CCCCN(O)C=O)NC(=O)c1nc(-c2cc(OC)ccc2O)oc1C)C(C)(C)C(=O)N[C@H]1CCCCN(O)C1=O [AMAMISTATIN A]
IC50 (A549): 0.56 µM | IC50 (MCF7 [18]): 0.48 µM | IC50 (MKN-45): 0.24 µM

CCn1cnc(-c2ccc(OC)cc2)c1-c1ccc(/C=C/C(=O)NO)cc1
IC50 (Histone deacetylase [1]): 0.504 µM | IC50 (Histone deacetylase [2]): 0.036 µM

CC1(C)C(=O)N(c2ccc(C#N)c(C(F)(F)F)c2)C(=O)N1Cc1ccc(-c2cn(CCCCCCC(=O)NO)nn2)cc1
IC50 (MCF7 [17]): 4.24 µM | IC50 (Vero): 11 µM | IC50 (RWPE-1): 0.48 µM | IC50 (PC-3): 3.31 µM | IC50 (MDA-MB-231): 1.45 µM
